US6306860A, “2,5-pyridinedicarboxylic acid derivatives” (Dong Wha Pharm. Inc. Co., Ltd., priority 1998, dated 2001)
Where a name gives a salt, the structure may show the parent alone.

Legend:
[1] = target: T1, HIV reverse transcriptase (Human immunodeficiency virus type 1 group M subtype B, UniProt P04585); assay: In vitro inhibition test against HIV reverse transcriptase; format: biochemical; details: read-out: Inhibitory activity of HIV-RT (%); for inhibition at 0.1 µg/mL: 0.1 μg/ml; for inhibition at 1 µg/mL: 1 μg/ml
T1 construct: purchased Boehringer Mannheim
Experimental: Experiment 2: The in vitro Inhibition Test Against HIV Reverse Transcriptase
The inhibitory activity in vitro was measured using a non-radioactive reverse transcriptase assay Kit (Boehringer Mannheim).
At first, 20 μl(40 ng) of HIV-RT was added to the wells, coated with streptavidin and with the addition of 20 μl reaction mixture containing template/primer hybrid poly(A)/oligo(dT)15 and DIG-(digoxigenin)-dUTP, biotin-dUTP and TTP, 20 μl of test compound was added and reacted at 37° C. for 1 hour. The control without test compound was used for the comparison of related activity. Since DNA containing nucleotide labeled with digoxigenin and biotine was prepared by the action of HIV-RT, it was combined with streptavidin coated at the bottom of the wells. After the reaction was completed, remaining impurities were removed by washing each well with 250 μl buffer solution (pH 7.0) for 30 seconds 5 times and with the addition of 200 μl anti-DIG-POD antibody, the mixture was reacted at 37° C. for 1 hour. For the removal of remaining impurities again, the reacting solution was washed with a buffer solution and with the addition of 200 μl ABTS™ each, a substrate of POD(peroxidase), the solution was reacted at room temperature for 30 minutes. The absorbance was read by ELISA reader at 405 nm for the assay of reverse transcriptase activity and its inhibition activity.

HBV polymerase = target: T2, HBV polymerase (Hepatitis B virus genotype D subtype ayw, UniProt P03156); assay: Inhibitory activities against HBV polymerase (reverse transcriptase activity) in vitro; format: biochemical; details: read-out: Inhibitory activity of HBV-RT (%); for inhibition at 0.01 µg/mL: 0.01 μg/ml; for inhibition at 0.1 µg/mL: 0.1 μg/ml; for inhibition at 1 µg/mL: 1 μg/ml
T2 construct: made in house; host or cells: E. coli
T2 sequence (P03156 whole entry): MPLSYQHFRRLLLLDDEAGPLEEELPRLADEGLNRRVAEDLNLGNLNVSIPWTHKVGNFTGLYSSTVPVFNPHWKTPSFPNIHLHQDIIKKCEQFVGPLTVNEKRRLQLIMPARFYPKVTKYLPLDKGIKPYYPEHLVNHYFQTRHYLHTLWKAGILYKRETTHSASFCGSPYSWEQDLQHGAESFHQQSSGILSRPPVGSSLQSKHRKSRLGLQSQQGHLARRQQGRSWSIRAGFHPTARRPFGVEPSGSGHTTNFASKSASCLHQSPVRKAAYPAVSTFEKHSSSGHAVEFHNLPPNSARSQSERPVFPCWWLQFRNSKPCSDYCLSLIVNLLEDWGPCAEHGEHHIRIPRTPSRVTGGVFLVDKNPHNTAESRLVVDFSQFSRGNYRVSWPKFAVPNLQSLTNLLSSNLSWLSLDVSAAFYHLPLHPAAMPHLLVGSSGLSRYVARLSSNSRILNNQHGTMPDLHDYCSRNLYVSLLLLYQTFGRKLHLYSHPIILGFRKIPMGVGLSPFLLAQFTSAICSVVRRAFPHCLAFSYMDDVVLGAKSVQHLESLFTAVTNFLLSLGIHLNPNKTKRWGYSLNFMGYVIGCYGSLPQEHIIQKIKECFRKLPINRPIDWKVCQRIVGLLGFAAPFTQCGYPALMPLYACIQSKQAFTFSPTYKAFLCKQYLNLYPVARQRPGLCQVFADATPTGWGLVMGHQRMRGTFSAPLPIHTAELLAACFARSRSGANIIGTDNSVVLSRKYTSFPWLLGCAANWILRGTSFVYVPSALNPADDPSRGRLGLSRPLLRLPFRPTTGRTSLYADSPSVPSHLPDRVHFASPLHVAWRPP
Source text: Experiment 1:Inhibitory Activities Against HBV Polymerase in vitro
Recently, the inventors of the present invention have produced a recombinant HBV polymerase that is expressed from E.coli transformant, measured its enzyme activity and filed patent applications threrof [Korean Pat. Appl. Nos. 94-3918 and 96-33998].
The inventors have also established a method of measuring the reverse transcriptase activity of HBV polymerase in vitro. The fundamental principle is the same as the ELISA method, and after reacting the substrate with biotin- and DIG-modified nucleotide, a method of recognizing the polymerized substrate as anti-DIG antibody with peroxidase was used.
20 μl of HBV polymerase, 20 μl of reaction mixture and 20 μl of test compound was mixed and reacted at 14° C.~30° C. for 18~24 hours. Then, the inhibitory effect of the test compound against reverse transcriptase activity in the HBV polymerase was examined, compared with the results of control tests without the test compound.

`CC(C)CNC(=O)c1ccc(C(=O)N2CCN(CCO)CC2)nc1` [Exam. 88, 6-[1-(2-hydroxyethyl)piperazin-4-yl-carbonyl]-N-isobutylnicotinamide.HCl] gave an inhibition at 0.1 µg/mL [1] of 50%, an inhibition at 1 µg/mL [1] of 70% and an inhibition at 0.01 µg/mL (HBV polymerase) of 55%. It also gave an inhibition at 0.1 µg/mL (HBV polymerase) of 67% and an inhibition at 1 µg/mL (HBV polymerase) of 81%.
For `CC(C)Nc1cccnc1N1CCN(C(=O)c2ccc(C(=O)NCc3ccncc3)cn2)CC1` [Exam. 77, 6-[1-[3-(isopropylamino)-2-pyridyl]piperazin-4-yl-carbonyl]-N-(4-pyridylmethyl)nicotinamide], the inhibition at 0.1 µg/mL [1] was 59%, the inhibition at 1 µg/mL [1] was 79% and the inhibition at 0.01 µg/mL (HBV polymerase) was 39%. The inhibition at 0.1 µg/mL (HBV polymerase) was 65% and the inhibition at 1 µg/mL (HBV polymerase) was 79%.
Work on `CCNc1cccnc1N1CCN(C(=O)c2ccc(C(=O)NCCN3CCOCC3)cn2)CC1` [Exam. 60, 2-[1-[3-(ethylamino)-2-pyridyl]piperazin-4-yl-carbonyl]-5-[N-[2-(morpholin4-yl)ethyl]carbamoyl]pyridine.HCl] yielded an inhibition at 0.1 µg/mL [1] of 55%, an inhibition at 1 µg/mL [1] of 73% and an inhibition at 0.01 µg/mL (HBV polymerase) of 30%. It also gave an inhibition at 0.1 µg/mL (HBV polymerase) of 52% and an inhibition at 1 µg/mL (HBV polymerase) of 66%.
For `CC(C)Nc1cccnc1N1CCN(C(=O)c2ccc(C(=O)NC(C)(C)CO)cn2)CC1` [Exam. 6, 5-[N-(1,1-dimethyl-2-hydroxyethyl)carbamoyl]-2-[1-[3-(isopropylamino)-2-pyridyl]piperazin-4-yl-carbonyl]pyridine], the inhibition at 0.1 µg/mL [1] was 48%, the inhibition at 1 µg/mL [1] was 70% and the inhibition at 0.01 µg/mL (HBV polymerase) was 62%. For the same compound, the inhibition at 0.1 µg/mL (HBV polymerase) was 65% and the inhibition at 1 µg/mL (HBV polymerase) was 80%.
For `CC[C@H](CO)NC(=O)c1ccc(C(=O)N2CCN(CCO)CC2)nc1` [Exam. 94, 6-[1-(2-hydroxyethyl)piperazin-4-yl-carbonyl]-N-[(1R)-1-(hydroxymethyl)propyl]nicotinamide.HCl], the inhibition at 0.1 µg/mL [1] was 30%, the inhibition at 1 µg/mL [1] was 62% and the inhibition at 0.01 µg/mL (HBV polymerase) was 20%. The inhibition at 0.1 µg/mL (HBV polymerase) was 51% and the inhibition at 1 µg/mL (HBV polymerase) was 72%.
`CC(C)Nc1cccnc1N1CCN(C(=O)c2ccc(C(=O)Nc3ncccc3O)cn2)CC1` [Exam. 85, N-(3-hydroxy-2-pyridyl)-6-[1-[3-(isopropylamino)-2-pyridyl]piperazin-4-yl-carbonyl]nicotinamide] showed an inhibition at 0.1 µg/mL [1] of 47%, an inhibition at 1 µg/mL [1] of 70% and an inhibition at 0.01 µg/mL (HBV polymerase) of 61%. For the same compound, the inhibition at 0.1 µg/mL (HBV polymerase) was 70% and the inhibition at 1 µg/mL (HBV polymerase) was 88%.
Work on `Cc1cc(NC(=O)c2ccc(C(=O)N3CCN(c4ncccc4NC(C)C)CC3)nc2)no1` [Exam. 67, 6-[1-[3-(isopropylamino)-2-pyridyl]piperazin-4-yl-carbonyl]-N-(5-methylisoxazol-3-yl)nicotinamide] yielded an inhibition at 0.1 µg/mL [1] of 30%, an inhibition at 1 µg/mL [1] of 58% and an inhibition at 0.01 µg/mL (HBV polymerase) of 25%. For the same compound, the inhibition at 0.1 µg/mL (HBV polymerase) was 50% and the inhibition at 1 µg/mL (HBV polymerase) was 72%.
`CC(C)CNc1cccnc1N1CCN(C(=O)c2ccc(C(=O)NCCCn3ccnc3)cn2)CC1` [Exam. 84, N-[3-(1H-imidazol-1-yl)propyl]-6-[1-[3-(isobutylamino)-2-pyridyl]piperazin-4-yl-carbonyl]nicotinamide] gave an inhibition at 0.1 µg/mL [1] of 50%, an inhibition at 1 µg/mL [1] of 62% and an inhibition at 0.01 µg/mL (HBV polymerase) of 60%. For the same compound, the inhibition at 0.1 µg/mL (HBV polymerase) was 72% and the inhibition at 1 µg/mL (HBV polymerase) was 88%.
`Cc1ncc(CO)c(CNC(=O)c2ccc(C(=O)N3CCN(c4ncccc4NC(C)C)CC3)nc2)c1O` [Exam. 78] was tested, and the inhibition at 0.1 µg/mL [1] was 52%, the inhibition at 1 µg/mL [1] was 70% and the inhibition at 0.01 µg/mL (HBV polymerase) was 15%. It also gave an inhibition at 0.1 µg/mL (HBV polymerase) of 58% and an inhibition at 1 µg/mL (HBV polymerase) of 62%.
`CC(C)CNC(=O)c1ccc(C(=O)N2CCN(c3ncccc3NC(C)C)CC2)nc1` [Exam. 30, 2-[1-[3-(isopropylamino)-2-pyridyl]piperazin-4-yl-carbonyl]-5-[N-(2-methylpropyl)carbamoyl]pyridine] was tested, and the inhibition at 0.1 µg/mL [1] was 32%, the inhibition at 1 µg/mL [1] was 58% and the inhibition at 0.01 µg/mL (HBV polymerase) was 61%. For the same compound, the inhibition at 0.1 µg/mL (HBV polymerase) was 65% and the inhibition at 1 µg/mL (HBV polymerase) was 83%.
`COCCCNC(=O)c1ccc(C(=O)N2CCN(c3ncccc3NCC(C)C)CC2)nc1` [Exam. 47, 2-[1-[3-(isobutylamino)-2-pyridyl]piperazin-4-yl-carbonyl]-5-[N-(3-methoxypropyl)carbamoyl]pyridine] was tested, and the inhibition at 0.1 µg/mL [1] was 53%, the inhibition at 1 µg/mL [1] was 69% and the inhibition at 0.01 µg/mL (HBV polymerase) was 20%. The inhibition at 0.1 µg/mL (HBV polymerase) was 51% and the inhibition at 1 µg/mL (HBV polymerase) was 72%.
With `COCCCNC(=O)c1ccc(C(=O)N2CCN(c3ncccc3NC(C)C)CC2)nc1` [Exam. 45, 2-[1-[3-(isopropylamino)-2-pyridyl]piperazin-4-yl-carbonyl]-5-[N-(3-methoxypropyl)carbamoyl]pyridine] the inhibition at 0.1 µg/mL [1] was 47%, the inhibition at 1 µg/mL [1] was 68% and the inhibition at 0.01 µg/mL (HBV polymerase) was 28%. For the same compound, the inhibition at 0.1 µg/mL (HBV polymerase) was 53% and the inhibition at 1 µg/mL (HBV polymerase) was 63%.
For `CC(C)Nc1cccnc1N1CCN(C(=O)c2ccc(C(=O)NCCCn3ccnc3)cn2)CC1` [Exam. 83, N-[3-(1H-imidazol-1-yl)propyl]-6-[1-[3-(isopropylamino)-2-pyridyl]piperazin-4-yl-carbonyl]nicotinamide], the inhibition at 0.1 µg/mL [1] was 30%, the inhibition at 1 µg/mL [1] was 62% and the inhibition at 0.01 µg/mL (HBV polymerase) was 65%. The inhibition at 0.1 µg/mL (HBV polymerase) was 72% and the inhibition at 1 µg/mL (HBV polymerase) was 89%.
In the case of `COCC(C)NC(=O)c1ccc(C(=O)N2CCN(c3ncccc3NC(C)C)CC2)nc1` (stereo not shown) [Exam. 43, 2-[1-[3-(isopropylamino)-2-pyridyl]piperazin-4-yl-carbonyl]-5-[N-(2-methoxy-1-methylethyl)carbamoyl]pyridine], the inhibition at 0.1 µg/mL [1] is reported as 44%, the inhibition at 1 µg/mL [1] is reported as 56% and the inhibition at 0.01 µg/mL (HBV polymerase) is reported as 50%. For the same compound, the inhibition at 0.1 µg/mL (HBV polymerase) was 61% and the inhibition at 1 µg/mL (HBV polymerase) was 68%.
Compound `CC(C)Nc1cccnc1N1CCN(C(=O)c2ccc(C(=O)N(C)CC3OCCO3)cn2)CC1` [Exam. 52, 5-[N-[(1,3-Dioxolan-2-yl)methyl]-N-methylcarbamoyl]-2-[1-[3-(isopropylamino)-2-pyridyl]piperazin-4-yl-carbonyl]pyridine] has an inhibition at 0.1 µg/mL [1] of 50%, an inhibition at 1 µg/mL [1] of 62% and an inhibition at 0.01 µg/mL (HBV polymerase) of 39%. It also gave an inhibition at 0.1 µg/mL (HBV polymerase) of 60% and an inhibition at 1 µg/mL (HBV polymerase) of 76%.
In the case of `CCN(CC)C(=O)c1ccc(C(=O)N2CCN(c3ncccc3NC(C)C)CC2)nc1` [Exam. 33, 5-(N,N-diethylcarbamoyl)-2-[1-[3-(isopropylamino)-2-pyridyl]piperazin-4-yl-carbonyl]pyridine], the inhibition at 0.1 µg/mL [1] is reported as 64%, the inhibition at 1 µg/mL [1] is reported as 80% and the inhibition at 0.01 µg/mL (HBV polymerase) is reported as 20%. The inhibition at 0.1 µg/mL (HBV polymerase) was 62% and the inhibition at 1 µg/mL (HBV polymerase) was 73%.
For `CC(C)Nc1cccnc1N1CCN(C(=O)c2ccc(C(=O)NC(C)(C)C)cn2)CC1` [Exam. 28, 5-[N-(1,1-dimethylethyl)carbamoyl]-2-[1-[3-(isopropylamino)-2-pyridyl]piperazin-4-yl-carbonyl]pyridine], the inhibition at 0.1 µg/mL [1] was 45%, the inhibition at 1 µg/mL [1] was 55% and the inhibition at 0.01 µg/mL (HBV polymerase) was 61%. The inhibition at 0.1 µg/mL (HBV polymerase) was 72% and the inhibition at 1 µg/mL (HBV polymerase) was 88%.
`COCCNC(=O)c1ccc(C(=O)N2CCN(c3ncccc3NCC(C)C)CC2)nc1` [Exam. 41, 2-[1-[3-(isobutylamino)-2-pyridyl]piperazin-4-yl-carbonyl]-5-[N-(2-methoxyethyl)carbamoyl]-pyridine] gave an inhibition at 0.1 µg/mL [1] of 34%, an inhibition at 1 µg/mL [1] of 55% and an inhibition at 0.01 µg/mL (HBV polymerase) of 52%. It also gave an inhibition at 0.1 µg/mL (HBV polymerase) of 70% and an inhibition at 1 µg/mL (HBV polymerase) of 85%.
Compound `COCCN(CCOC)C(=O)c1ccc(C(=O)N2CCN(c3ncccc3NC(C)C)CC2)nc1` [Exam. 42, 5-[N,N-bis(2-methoxyethyl)carbamoyl]-2-[1-[3-(isopropylamino)-2-pyridyl]piperazin-4-yl-carbonyl]pyridine.HCl] has an inhibition at 0.1 µg/mL [1] of 20%, an inhibition at 1 µg/mL [1] of 54% and an inhibition at 0.01 µg/mL (HBV polymerase) of 15%. It also gave an inhibition at 0.1 µg/mL (HBV polymerase) of 52% and an inhibition at 1 µg/mL (HBV polymerase) of 70%.
`CC(C)Nc1cccnc1N1CCN(C(=O)c2ccc(C(=O)Nc3ccccn3)cn2)CC1` [Exam. 70, 6-[1-[3-(isopropylamino)-2-pyridyl]piperazin-4-yl-carbonyl]-N-(2-pyridyl)nicotinamide] showed an inhibition at 0.1 µg/mL [1] of 55%, an inhibition at 1 µg/mL [1] of 74% and an inhibition at 0.01 µg/mL (HBV polymerase) of 26%. It also gave an inhibition at 0.1 µg/mL (HBV polymerase) of 55% and an inhibition at 1 µg/mL (HBV polymerase) of 74%.
